This passage reports IC50 results from US10039753B2, “Imidazo[4,5-c]quinoline and imidazo[4,5-c][1,5]naphthyridine derivatives as LRRK2 inhibitors” (Pfizer Inc., priority 2015, dated 2018).

In assay [1] the target is T1, GST-tagged truncated LRRK2 (Homo sapiens, UniProt Q5S007).
T1 construct: GST-tagged truncated LRRK2 from Invitrogen (Cat # PV4874); GST; purchased Invitrogen PV4874
Kind of assay: LRRK2 Assay, Format 1 (Lantha Screen), WT. The class given is biochemical. The protocol: LRRK2 kinase activity was measured using Lantha Screen technology from Invitrogen. GST-tagged truncated LRRK2 from Invitrogen (Cat # PV4874) was incubated with a fluorescein-labeled peptide substrate based upon ezrin/radixin/moesin (ERM), also known as LRRKtide (Invitrogen cat # PR8976A), in the presence of a dose response of compound. Upon completion, the assay was stopped and detected with a terbium labeled anti-phospho-ERM antibody (Invitrogen, cat # PR8975A). […] Aliquots (3.5 μL) of the 100% DMSO dose response were mixed with 46.5 μL water then 1 μL of this mixture was added to the 3 μL substrate mix in the 384-well plate. The kinase reaction was started with 3 μL of a working solution of LRRK2 enzyme at a concentration of 4 μg/mL. […] The reaction was allowed to progress at room temperature for two hours and then stopped with the addition of 7 μL of detection buffer (20 mM Tris pH 7.6, 0.01% NP-40, 0.02% NaN3, 6 mM EDTA with 2 nM terbium labeled anti-phospho-ERM).

A further assay concerns the target mutant G2019S LRRK2 (Homo sapiens, UniProt Q5S007, G2019S). Kind of assay: LRRK2 Assay, Format 1 (Lantha Screen), G2019S mutant.
Setting [2] is: 100 nM LRRKtide, 50 μM ATP, 1.7 μg/mL LRRK2 enzyme, two hours at room temperature.
Setting [3] is: Format 1, wild-type LRRK2, geometric mean of 2-4 determinations unless footnoted (a: ≥5 determinations; b: single determination; c: determined on trifluoroacetate salt).

Molecules are shown by their SMILES. Counter-ions that a name gives are not always drawn. Like-named read-outs stand apart in the source and are kept apart here.

Sequence of mutant G2019S LRRK2 (Q5S007 970-2527 G2019S limits assumed): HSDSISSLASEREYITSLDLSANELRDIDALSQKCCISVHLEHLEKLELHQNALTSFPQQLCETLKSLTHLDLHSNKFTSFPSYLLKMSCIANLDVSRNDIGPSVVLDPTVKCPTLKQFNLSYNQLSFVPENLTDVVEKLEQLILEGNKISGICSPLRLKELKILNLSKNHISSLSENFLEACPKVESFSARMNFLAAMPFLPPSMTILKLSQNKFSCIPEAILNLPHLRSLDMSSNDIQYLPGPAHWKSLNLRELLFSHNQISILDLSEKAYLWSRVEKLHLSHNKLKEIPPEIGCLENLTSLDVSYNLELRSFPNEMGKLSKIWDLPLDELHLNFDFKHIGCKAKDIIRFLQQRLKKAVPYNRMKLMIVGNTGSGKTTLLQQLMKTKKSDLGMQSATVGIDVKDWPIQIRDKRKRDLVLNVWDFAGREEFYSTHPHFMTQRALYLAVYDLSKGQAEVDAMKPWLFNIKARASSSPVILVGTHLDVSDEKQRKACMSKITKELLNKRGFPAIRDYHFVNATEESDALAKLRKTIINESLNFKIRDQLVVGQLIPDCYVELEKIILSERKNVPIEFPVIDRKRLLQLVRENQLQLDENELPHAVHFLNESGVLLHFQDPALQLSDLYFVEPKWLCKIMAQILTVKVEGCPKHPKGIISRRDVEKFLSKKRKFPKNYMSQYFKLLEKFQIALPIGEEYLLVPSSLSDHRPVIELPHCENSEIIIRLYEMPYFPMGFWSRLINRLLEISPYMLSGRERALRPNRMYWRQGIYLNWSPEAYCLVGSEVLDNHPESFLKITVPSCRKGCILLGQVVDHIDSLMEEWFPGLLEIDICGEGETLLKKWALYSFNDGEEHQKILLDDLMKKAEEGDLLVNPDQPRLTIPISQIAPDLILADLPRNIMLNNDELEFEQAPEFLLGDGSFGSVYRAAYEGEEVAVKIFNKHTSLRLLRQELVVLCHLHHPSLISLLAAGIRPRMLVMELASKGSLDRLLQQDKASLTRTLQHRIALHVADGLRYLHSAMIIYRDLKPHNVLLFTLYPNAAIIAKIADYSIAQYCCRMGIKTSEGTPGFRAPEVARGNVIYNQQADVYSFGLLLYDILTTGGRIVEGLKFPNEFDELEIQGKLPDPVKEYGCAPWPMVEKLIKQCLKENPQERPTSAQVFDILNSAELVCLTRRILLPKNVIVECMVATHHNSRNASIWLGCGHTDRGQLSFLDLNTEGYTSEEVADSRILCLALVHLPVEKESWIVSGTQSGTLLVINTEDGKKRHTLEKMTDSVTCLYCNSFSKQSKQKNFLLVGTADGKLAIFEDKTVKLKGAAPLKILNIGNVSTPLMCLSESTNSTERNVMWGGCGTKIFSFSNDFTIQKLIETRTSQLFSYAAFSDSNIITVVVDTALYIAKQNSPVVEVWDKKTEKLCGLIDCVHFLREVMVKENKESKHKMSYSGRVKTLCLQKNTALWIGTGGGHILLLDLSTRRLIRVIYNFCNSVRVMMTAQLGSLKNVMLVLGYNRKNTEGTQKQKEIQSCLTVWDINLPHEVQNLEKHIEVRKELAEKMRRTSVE
T1 sequence (Q5S007 970-2527 limits assumed): as the sequence (Q5S007 970-2527 G2019S limits assumed) above, with S1050G counted along it

With `Cc1cc(Cc2nc3cnc4ccc(Cl)cc4c3n2C2CCOC(CC#N)C2)no1` (single isomer, unassigned; ent-2) [enantiomer of Example 134, [cis-4-{8-chloro-2-[(5-methyl-1,2-oxazol-3-yl)methyl]-1H-imidazo[4,5-c]quinolin-1-yl}tetrahydro-2H-pyran-2-yl]acetonitrile, ENT-2], the IC50 in assay [1] (setting [2]) was found to be 353 nM; against mutant G2019S LRRK2, 327 nM.
On to `Cc1nc(Cc2nc3cnc4ccc(Cl)cc4c3n2C2CCOC(CC#N)C2)no1` (single isomer, unassigned; ent-2) [enantiomer of Example 135, [cis-4-{8-chloro-2-[(5-methyl-1,2,4-oxadiazol-3-yl)methyl]-1H-imidazo[4,5-c]quinolin-1-yl}tetrahydro-2H-pyran-2-yl]acetonitrile, ENT-2], for which the IC50 in assay [1] (setting [2]) was 1450 nM; at mutant G2019S LRRK2 it was 1220 nM.
Consider `COc1ccc(Cc2nc3cnc4ccc(Cl)cc4c3n2[C@@H]2CCO[C@H](C)C2)nc1` [Example 2, 8-Chloro-2-[(5-methoxypyridin-2-yl)methyl]-1-[(2R,4R)-2-methyltetrahydro-2H-pyran-4-yl]-1H-imidazo[4,5-c]quinoline], for which the values for the 50% inhibitory concentration (IC50) (in assay [1] (setting [3]); on mutant G2019S LRRK2) were 6.8 nM and 5.6 nM, respectively.
On to `Cc1cc(Cc2nc3cnc4ccc(C#N)cc4c3n2[C@@H]2CCO[C@H](C)C2)no1` [Example 3, 2-[(5-Methyl-1,2-oxazol-3-yl)methyl]-1-[(2R,4R)-2-methyltetrahydro-2H-pyran-4-yl]-1H-imidazo[4,5-c]quinoline-8-carbonitrile], for which the IC50 is 4.9 nM in assay [1] (setting [3]) and 5.1 nM at mutant G2019S LRRK2.
`Cc1nc2cnc3ccc(Br)cc3c2n1[C@H]1CC[C@@H](F)C1` [Example 6, 8-Bromo-1-[(1S,3R)-3-fluorocyclopentyl]-2-methyl-1H-imidazo[4,5-c]quinoline]: the 50% inhibitory concentration (IC50) in assay [1] (setting [3]) was 172 nM; at mutant G2019S LRRK2, 168 nM.
In the case of `C[C@@H]1C[C@H](n2c(Cc3cn4ncsc4n3)nc3cnc4ccc(Cl)cc4c32)CCO1` [Example 8, 8-Chloro-2-(imidazo[2,1-b][1,3,4]thiadiazol-6-ylmethyl)-1-[(2R,4R)-2-methyltetrahydro-2H-pyran-4-yl]-1H-imidazo[4,5-c]quinoline], the IC50 was found to be 4.4 nM in assay [1] (setting [3]) and 3.1 nM against mutant G2019S LRRK2.
In the case of `C[C@@H]1C[C@H](n2c(CC#N)nc3cnc4ccc(Cl)cc4c32)CCO1` [Example 9, {8-Chloro-1-[(2R,4R)-2-methyltetrahydro-2H-pyran-4-yl]-1H-imidazo[4,5-c]quinolin-2-yl}acetonitrile], the IC50 was found to be 6.3 nM in assay [1] (setting [3]) and 6.4 nM on mutant G2019S LRRK2.
As for `C[C@@H]1C[C@H](n2c(Cc3cscn3)nc3cnc4ccc(Cl)cc4c32)CCO1` [Example 10, 8-Chloro-1-[(2R,4R)-2-methyltetrahydro-2H-pyran-4-yl]-2-(1,3-thiazol-4-ylmethyl)(4-^2H)-1H-imidazo[4,5-c]quinoline], the half-maximal inhibitory concentration (IC50) in assay [1] (setting [3]) was determined as 5 nM; on mutant G2019S LRRK2 (read-out: LRRK2, Format 1 G2019S IC50, Format 1, G2019S mutant LRRK2, geometric mean of 2-4 determinations unless footnoted (a: ≥5 determinations; b: single determination; c: determined on trifluoroacetate salt)) it was 3 nM.
With `C[C@@H]1C[C@H](n2c(Cc3ncon3)nc3cnc4ccc(Cl)cc4c32)CCO1` [Example 13, 8-chloro-1-[(2R,4R)-2-methyltetrahydro-2H-pyran-4-yl]-2-(1,2,4-oxadiazol-3-ylmethyl)-1H-imidazo[4,5-c]quinoline], the IC50 was determined as 10.3 nM in assay [1] (setting [3]) and 6.4 nM on mutant G2019S LRRK2.
For the compound `Cc1nc2cnc3ccc(C#N)cc3c2n1C1CCOCC1` [Example 14, 2-methyl-1-(tetrahydro-2H-pyran-4-yl)-1H-imidazo[4,5-c]quinoline-8-carbonitrile], the IC50 in assay [1] (setting [3]) turned out to be 160 nM; against mutant G2019S LRRK2, 191 nM.
On to `F[C@H]1CC[C@@H](n2c(Cc3ccon3)nc3cnc4ccccc4c32)C1` [Example 16, 1-[(1R,3S)-3-fluorocyclopentyl]-2-(1,2-oxazol-3-ylmethyl)-1H-imidazo[4,5-c]quinoline], for which the 50% inhibitory concentration (IC50) is 158 nM in assay [1] (setting [3]) and 184 nM against mutant G2019S LRRK2.
Take `Cc1nc2cnc3ccc(Cl)cc3c2n1C1CCOCC1` [Example 17, 8-chloro-2-methyl-1-(tetrahydro-2H-pyran-4-yl)-1H-imidazo[4,5-c]quinoline]: the values for the IC50 (in assay [1] (setting [3]); on mutant G2019S LRRK2) were 125 nM and 132 nM, respectively.
The like results for `c1ccc2c(c1)ncc1nc(Cc3ccon3)n(C3CCOCC3)c12` [Example 18, 2-(1,2-oxazol-3-ylmethyl)-1-(tetrahydro-2H-pyran-4-yl)-1H-imidazo[4,5-c]quinoline] were, in that order, 153 nM and 250 nM.
Turning to `Cc1nc2cnc3ccc(C#N)cc3c2n1[C@H]1CC[C@@H](F)C1` [Example 20, 1-[(1S,3R)-3-fluorocyclopentyl]-2-methyl-1H-imidazo[4,5-c]quinoline-8-carbonitrile], the concentration for half-maximal inhibition (IC50) was found to be 195 nM in assay [1] (setting [3]) and 174 nM at mutant G2019S LRRK2.
The like results for `C[C@@H]1C[C@H](n2c(Cc3ccon3)nc3cnc4ccc(C#N)cc4c32)CCO1` [Example 22, 1-[(2R,4R)-2-methyltetrahydro-2H-pyran-4-yl]-2-(1,2-oxazol-3-ylmethyl)-1H-imidazo[4,5-c]quinoline-8-carbonitrile] were, in that order, 5.2 nM and 3.9 nM.
For `C[C@H]1C[C@H](n2c(Cc3ccon3)nc3cnc4ccc(C#N)cc4c32)CCO1` [Example 24, 1-[(2S,4R)-2-methyltetrahydro-2H-pyran-4-yl]-2-(1,2-oxazol-3-ylmethyl)-1H-imidazo[4,5-c]quinoline-8-carbonitrile], the IC50 in assay [1] (setting [3]) was 72 nM; at mutant G2019S LRRK2, 62 nM.
On to `F[C@@H]1CC[C@H](n2c(Cc3ccon3)nc3cnc4ccc(Br)cc4c32)C1` [Example 25, 8-bromo-1-[(1S,3R)-3-fluorocyclopentyl]-2-(1,2-oxazol-3-ylmethyl)-1H-imidazo[4,5-c]quinoline, formate salt], for which the figures for the IC50 (in assay [1] (setting [3]); against mutant G2019S LRRK2) were 56.3 nM and 30.8 nM, respectively.
As to `F[C@H]1CC[C@@H](n2c(Cn3cncn3)nc3cnc4ccccc4c32)C1` [Example 26, 1-[(1R,3S)-3-fluorocyclopentyl]-2-(1H-1,2,4-triazol-1-ylmethyl)-1H-imidazo[4,5-c]quinoline], the figures for the 50% inhibitory concentration (IC50) (in assay [1] (setting [3]); against mutant G2019S LRRK2) were 162 nM and 155 nM, respectively.
The like results for `Cc1cn(Cc2nc3cnc4ccccc4c3n2[C@@H]2CC[C@H](F)C2)nn1` [Example 27, 1-[(1R,3S)-3-fluorocyclopentyl]-2-[(4-methyl-1H-1,2,3-triazol-1-yl)methyl]-1H-imidazo[4,5-c]quinoline, formate salt] were, in that order, 188 nM and 118 nM.
In the case of `F[C@H]1CC[C@@H](n2c(Cc3nc4ccccc4o3)nc3cnc4ccccc4c32)C1` [Example 28, 2-(1,3-benzoxazol-2-ylmethyl)-1-[(1R,3S)-3-fluorocyclopentyl]-1H-imidazo[4,5-c]quinoline], the IC50 in assay [1] (setting [3]) was 153 nM; against mutant G2019S LRRK2, 157 nM.
For `c1ccc2c(c1)ncc1nc(Cc3noc4ccccc34)n(C3CCOCC3)c12` [Example 29, 2-(1,2-benzoxazol-3-ylmethyl)-1-(tetrahydro-2H-pyran-4-yl)-1H-imidazo[4,5-c]quinoline], the results for the IC50 (in assay [1] (setting [3]); against mutant G2019S LRRK2) were 164 nM and 226 nM, respectively.
In the same order, the values of `c1ccc2c(c1)ncc1nc(Cn3cncn3)n(C3CCOCC3)c12` [Example 30, 1-(tetrahydro-2H-pyran-4-yl)-2-(1H-1,2,4-triazol-1-ylmethyl)-1H-imidazo[4,5-c]quinoline] are 120 nM and 146 nM.
As to `Cc1cn2cc(Cc3nc4cnc5ccccc5c4n3C3CCOCC3)nc2s1` [Example 31, 2-[(2-methylimidazo[2,1-b][1,3]thiazol-6-yl)methyl]-1-(tetrahydro-2H-pyran-4-yl)-1H-imidazo[4,5-c]quinoline], the figures for the IC50 (in assay [1] (setting [3]); against mutant G2019S LRRK2) were 126 nM and 151 nM, respectively.
Consider `Cc1cn(Cc2nc3cnc4ccccc4c3n2C2CCOCC2)nn1` [Example 32, 2-[(4-methyl-1H-1,2,3-triazol-1-yl)methyl]-1-(tetrahydro-2H-pyran-4-yl)-1H-imidazo[4,5-c]quinoline], for which the half-maximal inhibitory concentration (IC50) came to 98.6 nM in assay [1] (setting [3]) and 121 nM against mutant G2019S LRRK2.
In the same order, the values of `COCc1cn(Cc2nc3cnc4ccccc4c3n2C2CCOCC2)nn1` [Example 33, 2-{[4-(methoxymethyl)-1H-1,2,3-triazol-1-yl]methyl}-1-(tetrahydro-2H-pyran-4-yl)-1H-imidazo[4,5-c]quinoline] are 124 nM and 172 nM.
For `c1ccc2oc(Cc3nc4cnc5ccccc5c4n3C3CCOCC3)nc2c1` [Example 34, 2-(1,3-benzoxazol-2-ylmethyl)-1-(tetrahydro-2H-pyran-4-yl)-1H-imidazo[4,5-c]quinoline], the IC50 in assay [1] (setting [3]) was 111 nM; against mutant G2019S LRRK2, 139 nM.
In the same order, the values of `c1ccc2c(c1)ncc1nc(Cn3cnnn3)n(C3CCOCC3)c12` [Example 35, 1-(tetrahydro-2H-pyran-4-yl)-2-(1H-tetrazol-1-ylmethyl)-1H-imidazo[4,5-c]quinoline] are 152 nM and 211 nM.

Usually IC50 stands for the concentration at which inhibition is half-maximal.
